Results from patent publication EP1247803A2, “Indolinone compounds suitable for modulation of protein kinases” (Sugen, Inc., priority 1996, dated 1998).

How the values were obtained:
FLK-1 receptor = target: T1, FLK-1 receptor (Mus musculus, UniProt P35918); test: FLK-1 ELISA (kinase activity of the FLK-1 receptor in FLK-1/NIH3T3 cells, VEGF stimulated); format: cell-based
T1 construct: expressed in transfected cells; host or cells: NIH3T3 C7#3
Procedure, shortened: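 NIH3T3 C7#3 cells expressing FLK-1 were seeded at 25.000 cells/well, serum-starved overnight in 0.1% FBS, then treated with compound for two hours at 37°C (final DMSO 0.5%) before VEGF stimulation. Receptor was captured on anti-rabbit IgG-coated ELISA plates bearing affinity-purified anti-FLK-1 antiserum.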

PDGF-R = PDGF-R (Homo sapiens, UniProt P09619); test: PDGF-R ELISA; format: cell-based
Chain of PDGF-R (P09619 33-1106, species assumed): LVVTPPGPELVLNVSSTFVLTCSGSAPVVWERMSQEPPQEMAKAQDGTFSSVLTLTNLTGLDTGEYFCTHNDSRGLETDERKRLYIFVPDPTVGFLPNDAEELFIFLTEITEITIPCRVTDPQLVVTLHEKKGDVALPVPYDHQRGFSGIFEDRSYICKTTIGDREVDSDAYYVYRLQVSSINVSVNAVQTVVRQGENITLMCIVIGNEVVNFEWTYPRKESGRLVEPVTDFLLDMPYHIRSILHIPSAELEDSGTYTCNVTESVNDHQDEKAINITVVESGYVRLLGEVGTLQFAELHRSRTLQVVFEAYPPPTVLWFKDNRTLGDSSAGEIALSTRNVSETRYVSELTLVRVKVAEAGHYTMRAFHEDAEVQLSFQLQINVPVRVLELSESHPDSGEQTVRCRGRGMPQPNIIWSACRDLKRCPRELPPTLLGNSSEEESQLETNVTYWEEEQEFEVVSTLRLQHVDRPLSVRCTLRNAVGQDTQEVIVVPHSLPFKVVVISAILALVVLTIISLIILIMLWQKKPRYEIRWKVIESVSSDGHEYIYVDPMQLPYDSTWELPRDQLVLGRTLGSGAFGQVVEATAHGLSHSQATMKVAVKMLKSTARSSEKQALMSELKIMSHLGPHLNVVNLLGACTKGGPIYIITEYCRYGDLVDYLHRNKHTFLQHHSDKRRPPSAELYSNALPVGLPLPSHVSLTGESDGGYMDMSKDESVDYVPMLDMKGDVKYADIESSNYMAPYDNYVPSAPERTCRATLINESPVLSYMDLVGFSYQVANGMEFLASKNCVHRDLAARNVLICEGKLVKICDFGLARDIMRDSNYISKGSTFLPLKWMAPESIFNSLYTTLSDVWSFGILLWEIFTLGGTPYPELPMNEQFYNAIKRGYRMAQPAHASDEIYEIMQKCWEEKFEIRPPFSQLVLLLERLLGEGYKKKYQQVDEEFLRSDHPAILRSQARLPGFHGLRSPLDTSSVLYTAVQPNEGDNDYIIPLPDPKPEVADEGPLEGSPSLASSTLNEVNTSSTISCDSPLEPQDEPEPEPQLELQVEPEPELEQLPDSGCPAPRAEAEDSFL
Text: A PDGF-R ELISA is described in International Patent Publication No. WO 96/40116, published December 19, 1996 by Tang et al.

MET = MET biochemical kinase assay; parameters: species or system human; concentration or dose not given beside the values
Procedure, shortened: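 Capture ELISA: anti-rabbit Fc coat, rabbit anti-MET cytoplasmic domain pAb, lysate MET captured, washed. Compound + kinase buffer (ATP, divalent metals). Readout anti-pTyr-HRP/TMB, colorimetric.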

T1 sequence (P35918 20-1345): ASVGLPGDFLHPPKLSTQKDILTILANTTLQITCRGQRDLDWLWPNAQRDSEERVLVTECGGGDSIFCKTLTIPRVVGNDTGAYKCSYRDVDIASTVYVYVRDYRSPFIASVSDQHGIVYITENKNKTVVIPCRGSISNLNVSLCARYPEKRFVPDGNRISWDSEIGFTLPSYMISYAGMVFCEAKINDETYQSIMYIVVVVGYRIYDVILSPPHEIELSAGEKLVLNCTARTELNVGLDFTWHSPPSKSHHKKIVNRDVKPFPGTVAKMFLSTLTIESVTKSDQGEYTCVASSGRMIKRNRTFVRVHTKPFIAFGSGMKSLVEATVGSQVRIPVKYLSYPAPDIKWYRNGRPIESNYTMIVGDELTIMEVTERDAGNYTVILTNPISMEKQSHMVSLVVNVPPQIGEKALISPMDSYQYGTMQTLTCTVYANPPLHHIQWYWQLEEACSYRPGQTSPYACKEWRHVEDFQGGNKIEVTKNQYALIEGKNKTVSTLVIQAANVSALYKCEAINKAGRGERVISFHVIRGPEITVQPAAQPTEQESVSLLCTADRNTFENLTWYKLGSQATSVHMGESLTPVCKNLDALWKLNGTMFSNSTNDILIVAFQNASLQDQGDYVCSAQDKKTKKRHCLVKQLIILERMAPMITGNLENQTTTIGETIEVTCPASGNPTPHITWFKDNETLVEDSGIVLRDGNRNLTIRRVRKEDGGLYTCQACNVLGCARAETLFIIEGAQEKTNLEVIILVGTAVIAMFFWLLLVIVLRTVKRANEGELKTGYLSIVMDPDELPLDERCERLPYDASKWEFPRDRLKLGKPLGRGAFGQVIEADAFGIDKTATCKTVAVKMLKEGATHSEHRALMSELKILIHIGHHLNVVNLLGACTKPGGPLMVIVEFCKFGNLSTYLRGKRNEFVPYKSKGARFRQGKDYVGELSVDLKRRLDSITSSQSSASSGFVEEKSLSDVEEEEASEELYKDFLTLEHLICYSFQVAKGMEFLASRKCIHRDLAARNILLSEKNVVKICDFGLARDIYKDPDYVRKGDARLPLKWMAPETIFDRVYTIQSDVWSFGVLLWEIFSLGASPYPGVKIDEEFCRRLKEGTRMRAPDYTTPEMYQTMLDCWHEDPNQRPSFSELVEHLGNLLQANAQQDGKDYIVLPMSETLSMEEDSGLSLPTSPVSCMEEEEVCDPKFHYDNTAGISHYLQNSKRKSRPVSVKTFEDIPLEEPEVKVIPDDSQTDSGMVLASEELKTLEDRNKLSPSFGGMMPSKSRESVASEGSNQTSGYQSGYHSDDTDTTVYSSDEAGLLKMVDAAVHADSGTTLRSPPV

| SMILES | Fik Kinase %Inhibition (FLK-1 receptor) [%] | PDGF Kinase %Inhibition (PDGF-R) [%] | Met Kinase % Inhibition (MET) [%] |
| --- | --- | --- | --- |
| COc1c(C(C)(C)C)cc(C=C2C(=O)Nc3ccc(I)cc32)cc1C(C)(C)C [10733/B04] | -3.3 | 24.9 | 56.3 |
| COc1c([N+](=O)[O-])cc(C=C2C(=O)Nc3ccc(Br)c(C)c32)cc1C(C)(C)C [10733/C03] | 17.0 | 28.1 | 29.3 |
| COc1c([N+](=O)[O-])cc(C=C2C(=O)Nc3ccc(I)cc32)cc1C(C)(C)C [10733/B03] | 3.1 | 35.8 | 62.2 |
| COc1c(Cl)cc(C=C2C(=O)Nc3ccc(CCCl)cc32)cc1C(C)(C)C [10732/G09] | 16.9 | 9.8 | 33.9 |
| COc1c(O)ccc(C=C2C(=O)Nc3c(Br)cc(Br)cc32)c1[N+](=O)[O-] [10733/A11] | 15.0 | 4.2 | 43.5 |
| CC(C)(C)c1cc(C=C2C(=O)Nc3c(Br)cc(Br)cc32)cc(I)c1OCc1ccccc1 [10733/A02] | -5.2 | 11.5 | 74.6 |
| Cc1c(Br)ccc2c1C(=Cc1cc([N+](=O)[O-])ccc1O)C(=O)N2 [10733/C10] | -7.6 | -6.4 | 20.5 |
| CNS(=O)(=O)c1ccc2c(c1)C(=Cc1cc(C(C)(C)C)c(OCc3ccccc3)c(C(C)(C)C)c1)C(=O)N2 [10733/D05] | 16.5 | 16.8 | 25.1 |
| COc1c(C(C)C)cc(C=C2C(=O)Nc3ccc(S(=O)(=O)N4CCOCC4)cc32)cc1C(C)C [10732/F03] | 31.9 | 51.8 | 68.6 |
| CC(C)(C)c1cc(C=C2C(=O)Nc3ccc(I)cc32)cc(I)c1OCc1ccccc1 [10733/B02] | -7.4 | 14.7 | 74.6 |
| COc1c(Cl)cc(C=C2C(=O)Nc3ccc(S(=O)(=O)Nc4ccc(C(F)(F)F)cc4)cc32)cc1C(C)(C)C [10732/E09] | 15.3 | 46.7 | 18.1 |
| COc1cc(Br)cc(C=C2C(=O)Nc3ccc(Br)c(C)c32)c1O [10733/C08] | -28.5 | -3.6 | 85.7 |
| CC(C)(C)c1cc(C=C2C(=O)Nc3ccc(S(=O)(=O)Nc4ccc(C(F)(F)F)cc4)cc32)cc(I)c1OCc1ccccc1 [10733/E02] | 0.8 | 20.8 | 60.5 |
| COc1c(O)ccc(C=C2C(=O)Nc3ccc(Br)c(C)c32)c1[N+](=O)[O-] [10733/C11] | 42.8 | 62.2 | 35.1 |
| CC(C)c1cc(C=C2C(=O)Nc3ccc(S(=O)(=O)Nc4ccc(C(F)(F)F)cc4)cc32)cc(C(C)C)c1Oc1ccccc1 [10732/E04] | 15.8 | 29.5 | 8.2 |
| O=C1Nc2ccc(I)cc2C1=Cc1cc(Br)ccc1O [10733/B09] | -2.6 | 7.0 | 64.5 |
| CNS(=O)(=O)c1ccc2c(c1)C(=Cc1cc(I)c(OC)c(C(C)(C)C)c1)C(=O)N2 [10732/D11] | 18.8 | 18.9 | 48.6 |
| CC(C)(C)c1cc(C=C2C(=O)Nc3ccc(S(=O)(=O)N4CCOCC4)cc32)ccc1OCc1ccccc1 [10732/F06] | 11.6 | 0.2 | 45.7 |
| Cc1cc(C=C2C(=O)Nc3c(Br)cc(Br)cc32)cc(C)c1OCc1ccccc1 [10733/A07] | -27.4 | -12.9 | 27.2 |
| Cc1c(Br)ccc2c1C(=Cc1cc(I)c(OCc3ccccc3)c(C(C)(C)C)c1)C(=O)N2 [10733/C02] | 5.8 | 15.1 | 71.8 |
| COc1c(C(C)(C)C)cc(C=C2C(=O)Nc3ccc(Br)c(C)c32)cc1C(C)(C)C [10733/C04] | 8.4 | 19.2 | 18.4 |
| O=C1Nc2ccc(I)cc2C1=Cc1cc([N+](=O)[O-])ccc1O [10733/B10] | 5.7 | -59.6 | 65.1 |
